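Tested at 5 concentrations; 48 h exposure; 96-well plates; endpoints linearly interpolated, else capped at highest concentration. GI50 is the concentration that inhibits growth by half. TGI denotes the concentration required for complete inhibition of growth.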
Experiments:
Assay in all cases: inhibition of tumour cell growth, NCI panel, 48 h
A549 NSCLC = system: A549 NSCLC
HL-60(TB) leukemia = system: HL-60(TB) leukemia
LOX IMVI melanoma = system: LOX IMVI melanoma
MOLT-4 leukemia = system: MOLT-4 leukemia
NCI-H23 lung = system: NCI-H23 lung
OVCAR-5 ovarian = system: OVCAR-5 ovarian
BT-549 breast = system: BT-549 breast
MDA-MB-435 = system: MDA-MB-435
MCF7 breast = system: MCF7 breast
PC-3 prostate = system: PC-3 prostate

| SMILES | TGI (A549 NSCLC) | TGI (HL-60(TB) leukemia) | TGI (LOX IMVI melanoma) | TGI (MOLT-4 leukemia) | TGI (NCI-H23 lung) | TGI (OVCAR-5 ovarian) | GI50 (BT-549 breast) | TGI (BT-549 breast) | GI50 (HL-60(TB) leukemia) | GI50 (LOX IMVI melanoma) | GI50 (MDA-MB-435) | TGI (MDA-MB-435) | GI50 (MOLT-4 leukemia) | GI50 (NCI-H23 lung) | GI50 (OVCAR-5 ovarian) | GI50 (A549 NSCLC) | GI50 (MCF7 breast) | TGI (MCF7 breast) | GI50 (PC-3 prostate) | TGI (PC-3 prostate) |
| --- | --- | --- | --- | --- | --- | --- | --- | --- | --- | --- | --- | --- | --- | --- | --- | --- | --- | --- | --- | --- |
| CC1=CP(=O)(c2ccccc2)C=C(C)C1=C(Cl)Cl (stereo not given) | > 100 µM | 5.61 µM | 14.9 µM | 21.6 µM | 34.9 µM |  |  |  |  |  |  |  |  |  |  |  |  |  |  |  |
| O=C(CC1C(=O)Nc2ccccc2S1(=O)=O)Nc1ccc(Cl)cc1 (stereo not given) | > 100 µM | 42.1 µM | 41.8 µM | 37.6 µM | > 100 µM | > 100 µM |  |  |  |  |  |  |  |  |  |  |  |  |  |  |
| COc1cc2ncnc(Nc3ccc(Oc4ccnc(C)c4)c(C)c3)c2cc1NC(=O)CC1CCSS1 (stereo not given) |  | 2.83 µM | > 50 µM | 0.435 µM | 2.5 µM | > 50 µM | 1.2 µM | 2.94 µM | 1.28 µM | 2.62 µM | 0.976 µM | 2.48 µM | 0.134 µM | 1.07 µM | 1.87 µM |  |  |  |  |  |
| COc1ccc(-c2cc(-c3ccc(Cl)cc3)nc(NCCCCNc3ccnc4cc(Cl)ccc34)n2)cc1 | 3.9 µM | 22.1 µM | 3.18 µM | 8.28 µM | 9.3 µM | 29.5 µM | 13.4 µM | 28.6 µM | 5.08 µM | 1.7 µM | 1.79 µM | 3.27 µM | 2.65 µM | 2.61 µM | 15.4 µM | 1.87 µM | 1.82 µM | 3.73 µM |  |  |
| COc1ccc(O)cc1C(O)c1ccccc1 (stereo not given) | > 100 µM | > 100 µM | > 100 µM | > 100 µM | > 100 µM | > 100 µM |  |  |  |  |  |  |  |  |  |  |  |  |  |  |
| CCCCCCCCCCCCCCCC(=O)OCCOCCOCCOCCOCCOC(=O)CCCCCCCCCCCCCCC | > 100 µM | > 100 µM | > 100 µM | > 100 µM | > 100 µM | > 100 µM |  |  |  |  |  |  |  |  |  |  |  |  |  |  |
| Nc1nc2c(-c3ccc([N+](=O)[O-])cc3)nnn2c2ccccc12 | > 100 µM | > 100 µM | > 100 µM | > 100 µM | > 100 µM | > 100 µM |  |  |  |  |  |  |  |  |  |  |  |  |  |  |
| COc1ccc(-c2cn(-c3ccc(OC)c(OC)c3)c(=O)[nH]2)cc1 | > 100 µM | > 100 µM | > 100 µM | > 100 µM | > 100 µM | > 100 µM |  |  | 36.9 µM | > 100 µM | 50.2 µM | > 100 µM | 1.72 µM | > 100 µM | > 100 µM | > 100 µM | > 100 µM | > 100 µM | > 100 µM | > 100 µM |
| C[N+](C)(C)c1cc[c]([Sn]([c]2ccc([N+](C)(C)C)cc2)([c]2ccc([N+](C)(C)C)cc2)[c]2ccc([N+](C)(C)C)cc2)cc1 | > 100 µM | > 100 µM | > 100 µM |  | > 100 µM | > 100 µM |  |  | > 100 µM | > 100 µM |  |  |  | > 100 µM | > 100 µM | > 100 µM |  |  |  |  |
| CCc1cc2c(O)c(c1)Cc1cc(CC)cc(c1O)Cc1cc(CC)cc(c1O)Cc1cc(CC)cc(c1O)Cc1cc(CC)cc(c1O)Cc1cc(CC)cc(c1O)Cc1cc(CC)cc(c1O)C2 | > 100 µM | > 100 µM |  | > 100 µM | > 100 µM | > 100 µM |  |  |  |  |  |  |  |  |  |  |  |  |  |  |
| CC1C=CC(C(N)C(=O)O)O1 (stereo not given) | > 100 µM | > 100 µM | > 100 µM | > 100 µM | > 100 µM | > 100 µM |  |  |  |  |  |  |  |  |  |  |  |  |  |  |
